Tests used:
[1] = system: TIPS EPSPS site mutation lines (T0-1, T0-5 and T0-7); test: Glyphosate resistance verification in N6 culture medium, TIPS EPSPS site mutation lines; assay type: in vivo, Oryza sativa L. japonica. cv. Nipponbare; conditions: N6 culture medium containing 1 mg/L glyphosate, recorded after 10 days, TIPS EPSPS mutant rice T0-1, T0-5, T0-7
Description: (§1) The three TIPS EPSPS site mutation lines (T0-1, T0-5 and T0-7) obtained from Example 4 and wild type rice (Oryza sativa L. japonica. cv. Nipponbare) plants were placed into an N6 culture medium containing 1 mg/L glyphosate, and cultured under the routine culture conditions. The resistance results were recorded after 10 days. Verification was carried out in more than 3 plants for each TIPS EPSPS site mutation line.

[2] = system: wild type rice (Oryza sativa L. japonica. cv. Nipponbare) plants; test: Glyphosate resistance verification in N6 culture medium, wild type rice plants; assay type: in vivo; conditions: N6 culture medium containing 1 mg/L glyphosate, recorded after 10 days
Description: as §1

O=C(O)CNCP(=O)(O)O [glyphosate]
resistance results (plant condition) [1]: survived normally
resistance results (plant condition) [2]: chlorotic and wilting to die

From patent publication US11767536B2, “Method for obtaining glyphosate-resistant rice by site-directed nucleotide substitution” (Institute of Genetics and Developmental Biology, Chinese …, priority 2015, dated 2023)
